Experimental data taken from US6605628B1, “Method of using 5-(arysulfonyl)-, 5-(arylsulfanyl)-and 5-(arylsulfanyl)thiazolidine-2,4-diones for inhibition of farnesyl-protein transferase” (Wyeth Holdings Corporation, priority 2001, dated 2003).
pIC50: −log10 of the molar value.

Key:
FPTase [1] = biological target: T1, FPTase (Homo sapiens, UniProt P49354+P49356); assay: in vitro FTase Inhibition Assay, H-Ras used as substrate for farnesylation; assay type: biochemical; settings: Table I, read-out: IC50 H-Ras*
Method: (§1) Enzyme test procedure: FPTase inhibition in vitro assay was performed according to James, G. L., Brown, M. S., and Goldstein, J. L., Methods in Enzymology, 1995, 255, 38-46; and Garcia, M. A., et al., J. Biol. Chem., 1993, 268, 18415-18420.
(§2) Materials—Purified FPTase (Moomaw, J. F. and Casey, P. J., J. Biol. Chem., 1992, 267, 17438-17443), purified His6-Ras, inhibitor compounds at 10 mg/ml or 10 mM in 100% DMSO, ^3H-FPP (50,000 dpm/pmol) Amersham, TCA/SDS (6%/2%), TCA (6%), Glass fiber filters ([…]), vacuum manifold or 96 well filtration plates.
(§3) Methods—1. Dilute FPTase inhibitors from stock solutions to 2.5× in 2.5% DMSO, 10 mM DTT, 0.5% octyl-B-glucoside. 2. Solution #1 is added to FPTase reaction in a volume of […]. 3. Standard reaction mix, […], contains 50 mM Tris (7.5), 10 mM ZnCl2, 3 mM MgCl2, 20 mM KCl, 5 mM DTT, 0.2% octyl-B-glucoside, 1% DMSO, […] His6-Ras, 10 ng FPTase, and various concentrations of FPTase inhibitors. 4. Incubate for 30-90 min at 25° C. 5. Stop reactions with TCA/SDS (6%/2%), hold at 4° C. for 45-60 min. 6. Filter by manifold or 96 well plate, wash filter 3-5× with TCA (6%). 7. Add scintillant to filters, measure ^3H-FPP incorporation into Ras protein.
(§4) Analysis of Results—Percent inhibition by test compounds is determined by the following:
(§5) (cpm from precipitated Ras with test compounds)−(background cpm)×100=% inhibition.
(§6) (cpm from precipitated Ras without test compounds)−(background cpm)

FPTase [2] = biological target: T1, FPTase; assay: in vitro FTase Inhibition Assay, K-Ras used as substrate for farnesylation; assay type: biochemical; settings: Table I
Method: as §1, §2, §3, §4, §5, §6

Row | SMILES | pIC50 (FPTase [1]) | pIC50 (FPTase [2])
1 | COc1ccc(S(=O)(=O)C2(CCCC#Cc3ccc(Cl)cc3C)SC(=O)NC2=O)cc1 (stereo not drawn) [Example 142, 5-[5-(4-Chloro-2-methylphenyl)pent-4-ynyl]-5-(4-methoxybenzene-sulfonyl)-thiazolidine-2,4-dione] | 7.52 to 7.77 | 6.00 to 7.40
2 | COc1ccc(S(=O)(=O)C2(CCCC#Cc3ccc(Br)cc3C)SC(=O)NC2=O)cc1 (stereo not drawn) [Example 143, 5-[5-(4-Bromo-2-methy-phenyl)pent-4-ynyl]-5-(4-methoxybenzene-sulfonyl)-thiazolidine-2,4-dione] | 7.52 | 6.07
3 | COc1ccc(S(=O)(=O)C2(CCCC#Cc3ccc(NC(=O)OC(C)(C)C)cc3)SC(=O)NC2=O)cc1 (stereo not drawn) [Example 145, (4-{5-[5-(4-Methoxybenzensulfonyl)-2,4-dioxothiazolidin-5-yl)pent-1-ynyl}phenyl)carbamic Acid tert-Butyl Ester] | 5.77 to 5.92 | 5.00 to 5.25
4 | Cc1ccc(C(=O)NC(C)(C)C)cc1C#CCCCC1(S(=O)(=O)c2ccc(I)cc2)SC(=O)NC1=O (stereo not drawn) [Example 147, N-tert-Butyl-3-{5-[5-(4-iodobenzenesulfonyl)-2,4-dioxothiazol-idin-5-yl]-pent-1-ynyl}-4-methyl-benzamide] | 6.68 to 8.17 | 7.00 to 7.10
5 | COc1ccc(S(=O)(=O)C2(CCCC#Cc3ccc(NC(=O)OC(C)(C)C)cc3C)SC(=O)NC2=O)cc1 (stereo not drawn) [Example 149, (4-{5-[5-(4-Methoxybenzenesulfonyl)-2,4-dioxo-thiazolidin-5-yl)pent-1-ynyl}-3-methylphenyl)carbamic Acid tert-Butyl Ester] | 6.30 to 6.35 | 5.31 to 6.00
6 | COc1ccc(S(=O)(=O)C2(CCCC#Cc3ccc(NC(=O)OC(C)(C)C)cc3C(F)(F)F)SC(=O)NC2=O)cc1 (stereo not drawn) [Example 151, (4-{5-[5-(4-Methoxybenzenesulfonyl)-2,4-dioxothiazolidin-5-yl]pent-1-ynyl}-3-trifluoromethylphenyl)-carbamic Acid tert-Butyl Ester] | 6.15 to 6.28 | 6.00 to 6.68
7 | COc1ccc(S(=O)(=O)C2(CC#Cc3ccc(-c4ccccc4)cc3)SC(=O)NC2=O)cc1 (stereo not drawn) [Example 171, 5-(3-Biphenyl-4-yl-prop-2-ynyl)-5-(4-methoxybenzenesulfonyl)-thiazolidine-2,4-dione] | 6.70 | 5.48
8 | COc1ccc(S(=O)(=O)C2(CCCC#Cc3cc(NC(=O)OCc4ccccc4)ccc3C)SC(=O)NC2=O)cc1 (stereo not drawn) [Example 175, (3-{5-[5-(4-Methoxybenzenesulfonyl)-2,4-dioxothiazolidin-5-yl]pent-1-ynyl}-4-methylphenyl)carbamic Acid Benzyl Ester] | 7.49 to 8.00 | 6.28 to 7.28
9 | COc1ccc(S(=O)(=O)C2(CCCC#Cc3cc(NC(=O)OCc4ccc([N+](=O)[O-])cc4)ccc3C)SC(=O)NC2=O)cc1 (stereo not drawn) [Example 176, (3-{5-[5-(4-Methoxybenzenesulfonyl)-2,4-dioxothiazolidin-5-yl]pent-1-ynyl}-4-methylphenyl)carbamic Acid 4-Nitro- Benzyl Ester] | 7.49 to 8.49 | 6.49 to 7.52
10 | COc1ccc(S(=O)(=O)C2(CCCC#Cc3cc(NC(=O)Oc4ccc(Cl)cc4)ccc3C)SC(=O)NC2=O)cc1 (stereo not drawn) [Example 177, (3-{5-[5-(4-Methoxybenzenesulfonyl)-2,4-dioxothiazolidin-5-yl]pent-1-ynyl}-4-methylphenyl)carbamic Acid 4-Chloro-phenyl Ester] | 7.49 to 7.96 | 7.00 to 7.07
11 | COC(=O)Nc1ccc(C)c(C#CCCCC2(S(=O)(=O)c3ccc(OC)cc3)SC(=O)NC2=O)c1 (stereo not drawn) [Example 178, (3-{5-[5-(4-Methoxybenzenesulfonyl)-2,4-dioxothiazolidin-5-yl]pent-1-ynyl}-4-methylphenyl)carbamic Acid Methyl Ester] | 7.49 to 7.77 | 8.00
12 | COc1ccc(S(=O)(=O)C2(CCCC#Cc3cc(NC(=O)OC(C)C)ccc3C)SC(=O)NC2=O)cc1 (stereo not drawn) [Example 179, (3-(5-[5-(4-Methoxybenzenesulfonyl)-2,4-dioxothiazolidin-5-yl]pent-1-ynyl}-4-methylphenyl)carbamic Acid Isopropyl Ester] | 7.49 to 8.70 | 7.15 to 8.30
13 | COc1ccc(S(=O)(=O)C2(CCCC#Cc3cc(NC(=O)OCC(C)(C)C)ccc3C)SC(=O)NC2=O)cc1 (stereo not drawn) [Example 180, (3-(5-[5-(4-Methoxybenzenesulfonyl)-2,4-dixothiazolidin-5-yl]pent-1-ynyl}-4-methylphenyl)carbamic Acid Neopentyl Ester] | 7.49 to 8.70 | 7.05 to 8.15
14 | CCCCOC(=O)Nc1ccc(C)c(C#CCCCC2(S(=O)(=O)c3ccc(OC)cc3)SC(=O)NC2=O)c1 (stereo not drawn) [Example 181, (3-(5-[5-(4-Methoxybenzenesulfonyl)-2,4-dioxothiazolidin-5-yl]pent-1-ynyl}-4-methylphenyl)carbamic Acid Butyl Ester] | 7.49 to 8.00 | 6.89 to 7.00
15 | COc1ccc(S(=O)(=O)C2(CCCC#Cc3cc(NC(=O)OCC(C)C)ccc3C)SC(=O)NC2=O)cc1 (stereo not drawn) [Example 182, (3-{5-(5-(4-Methoxybenzenesulfonyl)-2 ,4-dioxothiazolidin-5-yl]pent-1-ynyl}-4-methylphenyl)carbamic Acid Isobutyl] | 8.00 to 8.30 | 7.25 to 7.49
16 | COc1ccc(S(=O)(=O)C2(CCCC#Cc3cc(NC(=O)Nc4ccc(Cl)cc4)ccc3C)SC(=O)NC2=O)cc1 (stereo not drawn) [Example 189, N-(4-Chlorophenyl)-N′-[3-(5-{5-[(4-methoxyphenyl)sulfonyl]-2,4-dioxo-1,3-thiazolidin-5-yl}-1-pentynyl)-4-methylphenyl]urea] | 7.00 | 5.92
17 | Cc1ccc(S(=O)(=O)C2(CCC/C=C\c3ccc(Cl)cc3)SC(=O)NC2=O)cc1 (stereo not drawn) [Example 217, 5-[(4Z)-5-(4-Chloro-phenyl)pent-4-enyl]-5-(toluene-4-sulfonyl)-thiazolidine-2,4-dione] | 7.00 | 5.07
18 | COc1ccc(S(=O)(=O)C2(CCCC#Cc3cccc(N)c3)SC(=O)NC2=O)cc1 (stereo not drawn) [Example 220, 5-[5-(3-Aminophenyl)pent-4-ynyl]-5-(4-methoxybenzenesulfonyl)-thiazolidine-2,4-dione] | 7.05 | 5.52
19 | COc1ccc(S(=O)(=O)C2(CCCC#Cc3cc(NC(=O)OCc4ccccc4)ccc3C)SC(=O)N(C(=O)OCc3ccccc3)C2=O)cc1 (stereo not drawn) [Example 226, Benzyl 5-[5-(5-{[(benzyloxy)carbonyl]-amino}-2-methylphenyl)pent-4-ynyl]-5-[(4-methoxyphenyl)sulfonyl]-2,4-dioxo-1,3-thiazolidine-3-carboxylate] | 7.30 to 7.52 | 5.49 to 7.00
20 | COc1ccc(S(=O)(=O)C2(CCCC#Cc3cc(NC(=O)OCc4ccc([N+](=O)[O-])cc4)ccc3C)SC(=O)N(C(=O)OCc3ccc([N+](=O)[O-])cc3)C2=O)cc1 (stereo not drawn) [Example 227, 4-Nitrobenzyl 5-[(4-methoxyphenyl)sulfonyl]-5-{5-[2-methyl-5-({[(4-nitrobenzyl)oxy]carbonyl}amino)phenyl]pent-4-ynyl}-2,4-dioxo-1,3-thiazolidine-3-carboxylate] | 8.00 to 8.15 | 6.40 to 6.68
21 | COC(=O)Nc1ccc(C)c(C#CCCCC2(S(=O)(=O)c3ccc(OC)cc3)SC(=O)N(C(=O)OC)C2=O)c1 (stereo not drawn) [Example 228, Methyl 5-(5-{5-[(methoxycarbonyl)amino]-2-methylphenyl}pent-4-ynyl)-5-[(4-methoxyphenyl)sulfonyl]-2,4-dioxo-1,3-thiazolidine-3-carboxylate] | 7.15 to 8.40 | 6.00 to 6.64
22 | COc1ccc(S(=O)(=O)C2(CCCC#Cc3cc(NC(=O)OC(C)C)ccc3C)SC(=O)N(C(=O)OC(C)C)C2=O)cc1 (stereo not drawn) [Example 229, Isopropyl 5-(5-{5-[(isopropoxycarbonyl)-amino]-2-methylphenyl}pent-4-ynyl)-5-[(4-methoxyphenyl)sulfonyl]-2,4-dioxo-1,3-thiazolidine-3-carboxylate] | 7.70 to 8.22 | 6.15 to 7.00
23 | COc1ccc(S(=O)(=O)C2(CCCC#Cc3cc(NC(=O)OCC(C)(C)C)ccc3C)SC(=O)N(C(=O)OCC(C)(C)C)C2=O)cc1 (stereo not drawn) [Example 230, Neopentyl 5-[(4-methoxyphenyl)sulfonyl]-5-[5-(2-methyl-5-{[(neopentyloxy)carbonyl]-amino}phenyl)pent-4-ynyl]-2,4-dioxo-1,3-thiazolidine-3-carboxylate] | 8.46 to 8.52 | 6.30 to 7.70
24 | CCCCOC(=O)Nc1ccc(C)c(C#CCCCC2(S(=O)(=O)c3ccc(OC)cc3)SC(=O)N(C(=O)OCCCC)C2=O)c1 (stereo not drawn) [Example 231, Butyl 5-(5-{5-[(butoxycarbonyl)amino]-2-methylphenyl}pent-4-ynyl)-5-[(4-methoxy-phenyl)sulfonyl]-2,4-dioxo-1,3-thiazolidine-3-carboxylate] | 7.68 to 8.00 | 6.00 to 7.00
